This note sets out measurements from patent US6346098B1, “Methods and kits for locally administering an active agent to an interstitial space of a host” (The Board of Trustees of the Leland Stanford Junior …, priority 2000, dated 2002).

A short description of data set [1]: Coronary venous injection of Evans Blue dye via AIV or MCV, regional myocardial infiltration. It is filed as in vivo, pigs. The note with it: LV apex, anterior interventricular septum and anterior wall via AIV, inferoposterior wall via MCV. How it is done: Methods and Results: In 13 anesthetized pigs the coronary sinus was cannulated percutaneously and a balloon-tipped catheter was advanced to the anterior interventricular vein (AIV) or middle cardiac vein (MCV). […] Injection was performed with hyperbaric pressure in 8/13 cases (61%).

For data set [2] the following is noted: total group of 13 pigs, coronary venous injection.

As to `Cc1cc(-c2ccc(/N=N/c3ccc4c(S(=O)(=O)O)cc(S(=O)(=O)O)c(N)c4c3O)c(C)c2)ccc1/N=N/c1ccc2c(S(=O)(=O)O)cc(S(=O)(=O)O)c(N)c2c1O` [Evans Blue dye, Evans Blue], the “infiltration of targeted myocardial regions” value in data set [1] was “localized, regional infiltration was reproducibly accomplished”. With `CC(=O)Nc1c(I)c(NC(C)=O)c(I)c(C(=O)O)c1I` [diatrizoate], the “persistence of contrast in myocardium (videodensitometric analysis)” value in data set [2] is given as “at least 30 minutes”. Besides, the “time for 50% clearance from myocardium (videodensitometric analysis)” value in data set [2] (FIG. 1) was roughly 4 min.
